What was measured:
Assay type in all cases: in vivo
[1] = test system: Lamium purpureum L., purple deadnettle (LAMPU); assay: greenhouse trial, foliar applied compositions, LAMPU
Description: (§1) More specifically, the following equation is used to calculate the expected activity of mixtures containing two herbicical active ingredients: Expected=A+B−(A×B/100) • A=observed efficacy of a first active ingredient at the same concentration as used in the mixture; • B=observed efficacy of the second active ingredient (or product, which may be a combination of active ingredients) at the same concentration as used in the mixture.
(§2) Results in Tables 1-8 are greenhouse trial results for foliar applied compositions.
(§3) • g/ha=grams acid equivalent per hectare (g ae/ha) for Cmpd 1 and grams active ingredient per hectare (g ai/ha) for diflufenican, picolinafen, BACARA® and BACARA® FORTE • Obs=observed value • Exp=expected value as calculated by the equations set forth above in paragraph [0024]. • Cmpd 1=benzyl 4-amino-3-chloro-6-(4-chloro-2-fluoro-3-methoxyphenyl)-5-fluoropyridine-2-carboxylate

[2] = test system: Matricaria recutita L., wild chamomile (MATCH); assay: greenhouse trial, foliar applied compositions, MATCH
Description: as §1, §2, §3

[3] = test system: Cirsium arvense (L.) Scop., Canada thistle (CIRAR); assay: greenhouse trial, foliar applied compositions, CIRAR
Description: as §1, §2, §3

[4] = test system: Kochia scoparia (L.) Schrad., kochia (KCHSC); assay: greenhouse trial, foliar applied compositions, KCHSC
Description: as §1, §2, §3

[5] = test system: Triticum aestivum (spring), spring wheat (TRZAS); assay: greenhouse trial, foliar applied compositions, TRZAS
Description: as §1, §2, §3

[6] = test system: Galium aparine L., catchweed bedstraw (GALAP); assay: greenhouse trial, foliar applied compositions, GALAP
Description: as §1, §2, §3

[7] = test system: Salsola tragus L., Russian thistle (SASKR); assay: greenhouse trial, foliar applied compositions, SASKR
Description: as §1, §2, §3

[8] = test system: Veronica persica Poir., Persian speedwell (VERPE); assay: greenhouse trial, foliar applied compositions, VERPE
Description: as §1, §2, §3

[9] = test system: Sinapis arvensis L., wild mustard (SINAR); assay: greenhouse trial, foliar applied compositions, SINAR
Description: as §1, §2, §3

[10] = test system: Papaver rhoeas L., common poppy (PAPRH); assay: greenhouse trial, foliar applied compositions, PAPRH
Description: as §1, §2, §3

[11] = test system: Chenpodium album L., common lambsquarters (CHEAL); assay: greenhouse trial, foliar applied compositions, CHEAL
Description: as §1, §2, §3

[12] = test system: Stellaria media (L.) Vill., common chickweed (STEME); assay: greenhouse trial, foliar applied compositions, STEME
Description: as §1
In some embodiments, the methods provided herein are utilized to control undesirable vegetation in cereals. In certain embodiments, the undesirable vegetation is Alopecurus myosuroides Huds. (blackgrass, ALOMY), Apera spica venti (L.) Beauv. (windgrass, APESV), Avena fatua L. (wild oat, AVEFA), Bromus tectorum L. (downy brome, BROTE), Lolium multiflorum Lam. (Italian ryegrass, LOLMU), Lolium rigidum (rigid ryegrass), Lolium multiflorum subsp. Gaudini (annual ryegrass, LOLMG), Phalaris minor Retz. […]
as §3

[13] = test system: Hordeum vulgare L., spring barley (HORVS); assay: greenhouse trial, foliar applied compositions, HORVS
Description: as §1, §2, §3

[14] = test system: Viola tricolor L., wild violet (VIOTR); assay: greenhouse trial, foliar applied compositions, VIOTR
Description: as §1, §2, §3

COc1c(Cl)ccc(-c2nc(C(=O)OCc3ccccc3)c(Cl)c(N)c2F)c1F [Cmpd 1, benzyl 4-amino-3-chloro-6-(4-chloro-2-fluoro-3-methoxyphenyl)-5-fluoropyridine-2-carboxylate]
LAMPU Obs ([1]; Cmpd 1 2.5 g ae/ha alone): 80
LAMPU Obs ([1]; Cmpd 1 5 g ae/ha alone): 80
MATCH Obs ([2]; Cmpd 1 2.5 g ae/ha alone): 0
MATCH Obs ([2]; Cmpd 1 5 g ae/ha alone): 10
CIRAR Obs ([3]; Cmpd 1 2.5 g ae/ha alone): 10
CIRAR Obs ([3]; Cmpd 1 5 g ae/ha alone): 20
KCHSC Obs ([4]; Cmpd 1 2.5 g ae/ha alone): 20
KCHSC Obs ([4]; Cmpd 1 5 g ae/ha alone): 40
TRZAS Obs ([5]; Cmpd 1 2.5 g ae/ha alone): 0
TRZAS Obs ([5]; Cmpd 1 5 g ae/ha alone): 5
GALAP Obs ([6]; Cmpd 1 2.5 g ae/ha alone): 60
GALAP Obs ([6]; Cmpd 1 5 g ae/ha alone): 60
SASKR Obs ([7]; Cmpd 1 2.5 g ae/ha alone): 10
SASKR Obs ([7]; Cmpd 1 5 g ae/ha alone): 60
VERPE Obs ([8]; Cmpd 1 2.5 g ae/ha alone): 0
VERPE Obs ([8]; Cmpd 1 5 g ae/ha alone): 5
SINAR Obs ([9]; Cmpd 1 2.5 g ae/ha alone): 60
SINAR Obs ([9]; Cmpd 1 5 g ae/ha alone): 70
PAPRH Obs ([10]; Cmpd 1 2.5 g ae/ha alone): 20
PAPRH Obs ([10]; Cmpd 1 5 g ae/ha alone): 70
CHEAL Obs ([11]; Cmpd 1 2.5 g ae/ha alone): 50
CHEAL Obs ([11]; Cmpd 1 5 g ae/ha alone): 60
STEME Obs ([12]; Cmpd 1 2.5 g ae/ha alone): 20
STEME Obs ([12]; Cmpd 1 5 g ae/ha alone): 30
HORVS Obs ([13]; Cmpd 1 2.5 g ae/ha alone): 0
HORVS Obs ([13]; Cmpd 1 5 g ae/ha alone): 0
VIOTR Obs ([14]; Cmpd 1 2.5 g ae/ha alone): 10
VIOTR Obs ([14]; Cmpd 1 5 g ae/ha alone): 10

O=C(Nc1ccc(F)cc1F)c1cccnc1Oc1cccc(C(F)(F)F)c1 [Diflufenican, N-(2,4-difluorophenyl)-2-[3-(trifluoromethyl)phenoxy]-3-pyridinecarboxamide]
LAMPU Obs ([1]; Diflufenican 50 g ai/ha alone): 0
MATCH Obs ([2]; Diflufenican 50 g ai/ha alone): 0
CIRAR Obs ([3]; Diflufenican 50 g ai/ha alone): 0
KCHSC Obs ([4]; Diflufenican 50 g ai/ha alone): 40
TRZAS Obs ([5]; Diflufenican 50 g ai/ha alone): 5
GALAP Obs ([6]; Diflufenican 50 g ai/ha alone): 0
SASKR Obs ([7]; Diflufenican 50 g ai/ha alone): 70
VERPE Obs ([8]; Diflufenican 50 g ai/ha alone): 10
SINAR Obs ([9]; Diflufenican 50 g ai/ha alone): 30
PAPRH Obs ([10]; Diflufenican 50 g ai/ha alone): 0
CHEAL Obs ([11]; Diflufenican 50 g ai/ha alone): 10
HORVS Obs ([13]; Diflufenican 50 g ai/ha alone): 5
VIOTR Obs ([14]; Diflufenican 50 g ai/ha alone): 15

O=C(Nc1ccc(F)cc1)c1cccc(Oc2cccc(C(F)(F)F)c2)n1 [Picolinafen, N-(4-fluorophenyl)-6-[3-(trifluoromethyl)phenoxy]-2-pyridinecarboxamide]
LAMPU Obs ([1]; Picolinafen 50 g ai/ha alone): 0
MATCH Obs ([2]; Picolinafen 50 g ai/ha alone): 0
CIRAR Obs ([3]; Picolinafen 50 g ai/ha alone): 15
KCHSC Obs ([4]; Picolinafen 50 g ai/ha alone): 20
TRZAS Obs ([5]; Picolinafen 50 g ai/ha alone): 10
SASKR Obs ([7]; Picolinafen 50 g ai/ha alone): 30
VERPE Obs ([8]; Picolinafen 50 g ai/ha alone): 10
SINAR Obs ([9]; Picolinafen 50 g ai/ha alone): 70
CHEAL Obs ([11]; Picolinafen 50 g ai/ha alone): 70
HORVS Obs ([13]; Picolinafen 50 g ai/ha alone): 10
VIOTR Obs ([14]; Picolinafen 50 g ai/ha alone): 10

From US9161536B2, “Herbicidal compositions comprising 4-amino-3-chloro-6-(4-chloro-2-fluoro-3-methoxyphenyl)-5-fluoropyridine-2-carboxylic acid or a derivative thereof and flurtamone, diflufenican, or picolinafen” (Dow AgroSciences LLC, priority 2012, dated 2015)
